Experimental data as given in patent US20250019445A1, “P-SELECTIN INHIBITION FOR TREATMENT OF CANCER” (Ramot at Tel-Aviv University Ltd., priority 2022, published 2025).

Assays:
[1] = different animal models; wording wraps from r29 ("anti-") to r30; cited from earlier work
[2] = tested on: P-selectin-, E-selectin-, and L-selectin-dependent adhesion; conditions: in humans in vitro; cited from earlier work
A549 spheroids = test: Lung cancer spheroid growth and invasion; format: cell-based, human
[3] = tested on: Human MDA-BM-231 3D spheroids; test: Breast cancer 3D spheroid invasion; format: cell-based; conditions: co-cultured with brain microenvironment cells; FIG. 7B
[4] = patients, administered systemically; cited from earlier work

In the case of `O=C(O)Cc1cccc(-c2cc(CCCCCCc3ccc(O[C@H]4O[C@H](CO)[C@@H](O)[C@H](O)[C@@H]4O)c(-c4cccc(CC(=O)O)c4)c3)ccc2O[C@H]2O[C@H](CO)[C@@H](O)[C@H](O)[C@@H]2O)c1` [Bimosiamose], the anti-inflammatory effects [1] is given as “inflammatory effects in different animal models” and the “inhibition of selectin-dependent adhesion” value [2] is given as “been shown to inhibit P-selectin-, E-selectin-, and L-selectin-”.

For `COc1ccc(C2CC(c3c(O)cc(C)oc3=O)=NCCS2)c(OC)c1` (stereo not shown) [SELPi, 3-[7-(2,4-Dimethoxyphenyl)-2,3,6,7-tetrahydro-1,4-thiazepin-5-yl]-4-hydroxy-6-methyl-2H-pyran-2-one], the “spheroid growth and invasion in Matrigel” value (A549 spheroids; FIG. 8D) was “reduced A549 spheroid growth and invasion in Matrigel, in a dose-dependent manner”, the spheroid growth (A549 spheroids; in the presence of human microglia, FIG. 8C) was “inhibits A549 spheroid growth” and the spheroid invasion [3] was “reduced invasion”.

For “inclacumab: monoclonal antibody directed towards P-selectin”, the tolerability [4] is given as “well tolerated”.

B1: crizanlizumab: Humanized monoclonal anti-P-selectin antibody. (antibody, chains of the INN, looked up, V domains shown)
VH: QVQLVQSGAEVKKPGASVKVSCKVSGYTFTSYDINWVRQAPGKGLEWMGWIYPGDGSIKYNEKFKGRVTMTVDKSTDTAYMELSSLRSEDTAVYYCARRGEYGNYEGAMDYWGQGTLVTVSS
VL: DIQMTQSPSSLSASVGDRVTITCKASQSVDYDGHSYMNWYQQKPGKAPKLLIYAASNLESGVPSRFSGSGSGTDFTLTISSLQPEDFATYYCQQSDENPLTFGGGTKVEIK
For B1, the tolerability [4] is listed as “well tolerated”.
